Where no end group is shown, it is not given here.

One sequence from patent US6737407B1, “Treatment of obesity” (Metabolic Pharmaceuticals, Ltd., priority 1997, dated 2004) can be followed below.

Experiment [1] deals with Human Abdominal adipose Tissue. The experiment in a line: Antilipogenic activity in human abdominal adipose tissue. Format: cell-based. Conditions: 0.1 μM peptide; BSA + insulin. The protocol:
The rate of the incorporation of exogenous [C^14]-glucose into total lipid in adipose tissue was measured as the index of anti-lipogenic activity of hGH 177-191.
Adipose tissues were sliced into segments of approximately 200 mg each and then placed in Krebs-Ringer bicarbonate (KRB) buffer (pH 7.4) containing 2% defatted BSA, and glucose (0.1 mg/ml) and gassed with 95% O2-5% CO2 at 37° C. After 1 hr preincubation, the tissues were transferred to another 2 ml of fresh media containing [C^14]-glucose (final specific activity 0.05 μCi/μmol), […] of insulin (0.1 mU/ml) for a further 90 min incubation (conditions as above). Then the tissues were removed, washed thoroughly with KRB buffer and lipid was extracted with 5 ml of chlorofom/methanol (2:1, v/v) The extraction solution was washed with 2 ml of MeOH-H2O solution containing 0.1% MgCl2. A 2.5 ml aliquot of the washed extraction solution was taken and transferred to scintillation vials. The [C^14] radioactivity was measured with a liquid scintillation counter. The rates of total lipid synthesis were expressed as μmol [C^14]-glucose incorporated into lipid/g tissue/hr.
Tables 6 and 7 show the in vitro antilipogenic and lipolytic activity of hGH 177-191 and two representative analogues (Ref Nos. 9604 and 9605) on human adipose tissue.

The test system of experiment [2] is Zucker fatty (fa/fa) rats. The experiment in a line: Chronic treatment of Zucker fatty rats: body weight gain and food consumption. The class given is in vivo, rat. Particulars: throughout the treatment period. As to the method:
Animals were given a daily intraperitoneal injection of either saline or the peptide (500 μg/kg body weight) (3A) or implanted intradermally with a slow-release tablet (500 μg/day/kg body weight) in the lower quadrant of the abdomen of the animals. The control group was implanted with a placebo tablet in the same manner. Each point represents the mean±SEM of 6 animals.
The treatment for the four groups of animals was as described in FIGS. 3A & 3B. Each point represents the mean±SEM of 6 animals.
The animals of the same age and same sex were randomly divided into two groups, housed 6 per cage and maintained on a normal 12-hr light/dark cycle at a constant room temperature of 25° C. in the animal house of the Department of Biochemistry and—Molecular Biology, Monash University, Clayton, Australia. Animals were fed ad libitum on pre-determined quantity of animal pellets (Clark King, Melboume, Australia) and allowed free access to water at all times. […] The body weight and food intake were monitored for the periods of time as indicated.
Cumulative weight gain and food consumption were determined at 3-day intervals by the measurements of body weight and uneaten food remaining in the cages. […]

Experiment [3] has as its system isolated adipocytes of normal rats. In words: Diacylglycerol (DAG) release from isolated adipocytes. Format: cell-based, rat. The protocol:
FIG. 8 illustrates the in vitro effect of hGH 177-191 on the release of diacylglycerol from isolated adipocytes of normal rats over an incubation period of 40 min. Diacylglycerol was quantitated using radioenzymic assay and the results were expressed as % increase over the basal levels.
Diacylglycerol released from isolated adipose tissue or adipocytes was quantitated using a radioenzymic assay, employing E coli DAG kinase and defined mixed micelle conditions to solubilize DAG and allow its quantitative conversion to [^33p] phosphatidic acid in the presence of [^33p]-γ-ATP.

Experiment [4] has as its system isolated adipose tissues of C57BL/6J (ob/ob) mice. In words: Oxidation of free fatty acid in isolated adipose tissues. Format: cell-based, mouse. Conditions: adipose tissues isolated from obese animals, FIG. 7. As to the method: FIG. 7 illustrates the in vitro effect of hGH 177-191 on fatty acid oxidation in isolated adipose tissues of C57BL/6J (ob/ob) mice with the determination of the rate of [C^14]O2 production from [C^14]-palmitic acid. The rate of [C^14]-palmitic acid oxidation was expressed as μmol/g tissue/hr.
The effect of hGH 177-191 or analogues on the free fatty acid (FFA) oxidation in the adipose tissues is evaluated by the measure of converted [C^14]O2 from C^14-palmitic acid. The [C^14]O2 a final product of FFA oxidation, was trapped by hyamine hydroxide and measured by liquid scintillation counter. The rate of FFA oxidation was then determined by [C^14] radioactivity.
Adipose tissues removed from laboratory animals were sliced into segments of approximately 200 mg each. The tissues in 25 ml vials containing 2 ml of Krebs-Ringer phosphate (KRP) buffer, and 2% defatted bovine serum albumin (BSA) were pre-incubated at 37° C. for 30 minutes under an atmosphere of carbogen (95%O2/5%CO2) Then the tissues were transferred to Konte flasks with fresh incubation medium with 0.15 mM sodium [C^14]-palmitate (final [C^14]-specific activity, 0.20 μCi/μmol) and hGH 177-191 peptide or analogues (1-1000 nM). […] The [C^14] radioactivity was measured with a liquid scintillation counter. The rate of [C^14]-palmitic acid oxidation to [C^14]O2 was calculated and expressed as μmol/g tissue/hr.

“LRIVQCRSVEGSCGF (cysteine pairing not given here) [Ref No. 9401]”: the 14C incorporation in experiment [1] is on record as 40 ± 3 Av DPM/mg tissue/hour. Besides, the “food consumption (in words)” value in experiment [2] is “unchanged”. Further, the “production/release of diacylglycerol (in words)” value in experiment [3] is “activation of the production”. Besides, in experiment [4], the “oxidation of fatty acids (in words)” value is “enhanced”.
